Measured values from patent US8524755B2 (priority 2009, dated 2013).

Legend:
Androgen Receptor = molecular target: T1, Androgen Receptor (Homo sapiens, UniProt P10275); experiment: Androgen Receptor Nuclear Translocation Assay; format: cell-based; details: agonist mode; PathHunter NHRPro cells; 5 h; read-out: AR Nuclear Translocation Assay Agonist Mode EC50
T1 construct: expressed in transfected cells; host or cells: PathHunter NHRPro cell lines
T1 sequence (P10275 1-920): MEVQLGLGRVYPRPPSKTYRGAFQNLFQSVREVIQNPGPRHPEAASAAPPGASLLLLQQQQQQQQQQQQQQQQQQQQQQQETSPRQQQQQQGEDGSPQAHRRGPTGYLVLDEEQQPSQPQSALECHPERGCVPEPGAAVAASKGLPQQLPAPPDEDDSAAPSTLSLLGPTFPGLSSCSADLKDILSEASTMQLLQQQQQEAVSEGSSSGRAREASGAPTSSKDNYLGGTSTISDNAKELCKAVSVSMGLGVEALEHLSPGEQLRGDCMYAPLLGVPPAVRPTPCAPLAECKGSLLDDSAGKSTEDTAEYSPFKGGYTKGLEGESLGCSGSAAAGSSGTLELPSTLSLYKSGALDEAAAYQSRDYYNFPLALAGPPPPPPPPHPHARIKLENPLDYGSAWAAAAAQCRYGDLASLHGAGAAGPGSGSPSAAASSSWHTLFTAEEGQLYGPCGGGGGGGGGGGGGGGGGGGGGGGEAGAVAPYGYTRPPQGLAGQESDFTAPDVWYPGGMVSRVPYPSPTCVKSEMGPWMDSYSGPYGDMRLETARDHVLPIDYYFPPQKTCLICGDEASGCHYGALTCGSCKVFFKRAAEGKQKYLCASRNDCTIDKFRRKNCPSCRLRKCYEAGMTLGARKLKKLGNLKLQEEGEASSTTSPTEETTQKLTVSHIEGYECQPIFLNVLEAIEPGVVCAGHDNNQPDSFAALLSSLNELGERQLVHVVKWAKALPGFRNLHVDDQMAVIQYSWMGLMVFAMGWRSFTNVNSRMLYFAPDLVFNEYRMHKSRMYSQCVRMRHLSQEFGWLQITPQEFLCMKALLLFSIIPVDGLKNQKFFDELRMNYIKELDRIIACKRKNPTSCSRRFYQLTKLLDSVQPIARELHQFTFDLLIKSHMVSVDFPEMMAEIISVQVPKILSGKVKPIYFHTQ
Description: Once it was established that the cells were healthy and growing normally, cells were transferred from flasks using trypsin-free cell dissociation buffer and seeded into white walled clear bottom 384-well microplates for compound profiling. For profiling, cells were seeded at a density of 10,000 cells per well in a total volume of 50 μL and were allowed to adhere and recover overnight prior to compound addition. Media contained charcoal-dextran filtered serum to reduce the level of hormones present.
Agonist Format: Intermediate dilution of compound stocks were generated such that 5.5 μL of 10X compound could be added to each well with a final DMSO concentration of 1% of total volume. For profiling compound in agonist mode, the cells were incubated in the presence of compound at 37° C. for 5 h.
Antagonist Format: Agonist dose curves were performed to determine the EC80 value for the following antagonist testing with compounds. 5.5 μL of 10× agonist was added to each well with an equal concentration of vehicle present. EC80 agonist concentration was determined directly from agonist dose curve. For antagonist determination, cells were pre-incubated with antagonist followed by agonist challenge at the EC80 concentration: 5.5 μL of 10× compound added to cells and incubated at 37° C. for 1 h; 5.5 μL of 11× EC80 agonist added to cells and incubated at 37° C. for 5 h.
Signal Detection: After appropriate compound incubation, assay signal was generated through a single addition of 30 μL (50% v/v) of PathHunter Detection reagent cocktail for agonist and antagonist assays respectively followed by 1 h incubation at room temperature. Microplates were read following signal generation with a PerkinElmer ViewLux™ instrument for chemiluminescent signal detection.
Data Analysis: Dose curves in the presence and absence of compound were plotted using GraphPad Prism.

[1] = [14C]RD162′ radio-HPLC metabolite profile in Pooled Rat Plasma; format: in vivo, Sprague Dawley rats; details: [14C]RD162′ 100 mg/kg/day oral, day 7, 4 h
Description: The rats were dosed once a day for seven consecutive days; four hours after dosing on the seventh day, plasma was collected from all three rats. The plasma samples were stored at approximately −70° C. or colder.
Positive ion electrospray LC/MS and LC/MS/MS were used to analyze the metabolites.
To prepare the Pooled Rat Plasma for HPLC analysis, approximately 1 g of the plasma sample was combined with acetonitrile (ACN, sample:ACN, 1:3, v:v), vortex mixed, sonicated in cold water, centrifuged, and the supernatants were removed. The extraction was repeated twice and the respective supernatants were combined. […] The combined supernatants were evaporated to dryness and reconstituted in 1 mL of 0.1% formic acid in reverse osmosis (RO) water:ACN: methanol (MeOH, 50:45:5, v:v:v). […] The reconstituted sample was analyzed by HPLC to determine the metabolite profile with fractions collected at 10-second intervals and analyzed by solid scintillation counting.
The prepared samples were analyzed using the following LC/MS/MS conditions: HPLC: Hewlett Packard 1100 series; Mobile Phase: 0.1% formic acid in reverse osmosis water (A) and acetonitrile (B); Column: Agilent Eclipse XDB-C18, 4.6×150 mm, 5 μm; Guard column: Phenomenex Security Guard Cartridge C18, 3×4 mm; Column temperature: 20° C.; Gradient: 20-80% B in 40 min; Flow Rate: 1.5 mL/min.

Compound | EC50 (Androgen Receptor) | % Injected Radioactivity (%) [1] | % Recovered Radioactivity (%) [1] | Peak Area (mV) [1] | Peak Height (mV) [1]
Norgesterol [reference compound] | 2.9 nM |  |  |  | 
CC1(C)C(=O)N(c2ccc(C#N)c(C(F)(F)F)c2)C(=O)N1c1ccc(C(=O)O)c(F)c1 [(MV), 4-(3-(4-cyano-3-(trifluoromethyl)phenyl)-5,5-dimethyl-2,4-dioxoimidazolidin-1-yl)-2-fluorobenzoic acid] |  | 5.76% | 9.05% | 308 mV | 49 mV
